For one assay, the target named is DLK (Homo sapiens (Human), UniProt Q12852). The assay is described as follows: DLK biochemical assay (TR-FRET, MKK7 phosphorylation). As for the experimental part:
DLK assay is a biochemical assay format designed to screen for inhibitors of DLK. Enzymatic activity of DLK was measured by monitoring phosphorylation of the physiological substrate MKK7 (MAP2K7, Dual specificity mitogen-activated protein kinase kinase 7). Phosphorylation was detected by a TR-FRET system whereby His-tagged MKK7 was labeled by a XL665-labeled anti-His antibody (FRET acceptor, emission 665 nm). DLK phosphorylates MKK7 at T275/S277, which was detected by an Eu-labeled anti-phospho-MKK7 (T275/S277) antibody (F RET donor, excitation 340 nm). Phosphorylation of MKK7 results in an increased TR-FRET signal (Ratio XL665-channel/Eu-channel) and inhibition of enzymatic activity of DLK decreases the TR-FRET signal.
Assay Protocol for 1536 MTP format: test compounds were predispensed (60 nl) in test plates; +3 μl DLK solution (10 nM DLK, catalytic domain, Carna Biosiences, 0.6 mM DTT in assay buffer); +2 μl substrate solution (15 nM MKK7, LDB; 60 μM ATP; 0.4 mM DTT in assay buffer); 90 min incubation at RT; +2 μl detection mix (5 nM XL665-labeled anti-His antibody, Cisbio; 0.1 nM Eu-labeled anti-phospho-MKK7 (T275/S277), Cisbio/Millipore in detection buffer); 16 h incubation at 37° C.; endpoint measurement BMG (HTRF).
Assay Protocol for 384 low volume MTP format: 1 μl of test compounds were pipetted into test plate; +5 μl DLK solution (10 nM DLK, catalytic domain, Carna Biosiences in assay buffer); +5 μl substrate solution (15 nM MKK7, LDB; 60 μM ATP, in assay buffer); 90 min incubation at RT; +9 μl detection mix (20 nM XL665-labeled anti-His antibody, Cisbio; 0.4 nM Eu-labeled anti-phospho-MKK7 (T275/S277), Cisbio/Millipore in detection buffer); 16 h incubation at 4° C.; endpoint measurement BMG (HTRF).
(§1) All indicated concentrations final concentrations.
Assay buffer (384 format): 50 mM Hepes pH 7.5, 10 mM MgCl2, 1 mM EGTA, 1 mM DTT, 0,01% Triton X-100, 0.01% BSA, 1:500 Smart Block.
(§2) Detection buffer: 25 mM Tris/HCl pH 7.5, 100 mM EDTA, 100 mM NaCl, 200 mM KF, 0.01% Tween 20, 1:500 Smart Block.
A general note: Time-resolved FRET reads energy transfer from a long-lived donor to a nearby acceptor.

For the next assay, the target named is LZK (Homo sapiens (Human), UniProt O43283). The assay is described as follows: LZK biochemical assay (TR-FRET, MKK7 phosphorylation). The procedure:
LZK assay is a biochemical assay format designed to screen for inhibitors of LZK. Enzymatic activity of LZK was measured by monitoring phosphorylation of the physiological substrate MKK7 (MAP2K7, Dual specificity mitogen-activated protein kinase kinase 7). Phosphorylation was detected by a TR-FRET system whereby His-tagged MKK7 was labeled by a XL665-labeled anti-His antibody (FRET acceptor, emission 665 nm). LZK phosphorylates MKK7 at T275/S277 which were detected by an Eu-labeled anti-phospho-MKK7 (T275/S277) antibody (FRET donor, excitation 340 nm). Phosphorylation of MKK7 results in an increased TR-FRET signal (Ratio XL665-channel/Eu-channel) and inhibition of enzymatic activity of LZK decreases the TR-FRET signal.
Assay Protocol for 384 low volume MTP format: 1 μl of test compound was pipetted into test plate; +5 μl LZK solution (10 nM LZK, catalytic domain, Carna Biosiences in assay buffer); +5 μl substrate solution (15 nM MKK7, LDB; 15 μM ATP, in assay buffer); 90 min incubation at RT; +5 μl detection mix (20 nM XL665-labeled anti-His antibody, Cisbio; 0.4 nM Eu-labeled anti-phospho-MKK7 (T275/S277), Cisbio/Millipore in detection buffer), 16 h incubation at 32° C.; endpoint measurement BMG (HTRF).
as §1
Assay buffer (384 format): 50 mM Hepes pH 7.5, 10 mM MgCl2, 1 mM EGTA, 1 mM DTT, 0.01% Triton X-100, 0.01% BSA, 1:500 Smart Block.
as §2

Bounds are passed on as bounds.

Chain of LZK (O43283 168-409): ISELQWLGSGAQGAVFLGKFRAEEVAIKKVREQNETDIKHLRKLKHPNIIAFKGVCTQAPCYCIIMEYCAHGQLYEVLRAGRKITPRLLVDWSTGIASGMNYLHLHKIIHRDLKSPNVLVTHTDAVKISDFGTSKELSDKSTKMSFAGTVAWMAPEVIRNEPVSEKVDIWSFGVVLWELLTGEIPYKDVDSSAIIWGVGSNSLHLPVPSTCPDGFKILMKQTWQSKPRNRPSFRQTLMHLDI
Chain of DLK (Q12852 1-520): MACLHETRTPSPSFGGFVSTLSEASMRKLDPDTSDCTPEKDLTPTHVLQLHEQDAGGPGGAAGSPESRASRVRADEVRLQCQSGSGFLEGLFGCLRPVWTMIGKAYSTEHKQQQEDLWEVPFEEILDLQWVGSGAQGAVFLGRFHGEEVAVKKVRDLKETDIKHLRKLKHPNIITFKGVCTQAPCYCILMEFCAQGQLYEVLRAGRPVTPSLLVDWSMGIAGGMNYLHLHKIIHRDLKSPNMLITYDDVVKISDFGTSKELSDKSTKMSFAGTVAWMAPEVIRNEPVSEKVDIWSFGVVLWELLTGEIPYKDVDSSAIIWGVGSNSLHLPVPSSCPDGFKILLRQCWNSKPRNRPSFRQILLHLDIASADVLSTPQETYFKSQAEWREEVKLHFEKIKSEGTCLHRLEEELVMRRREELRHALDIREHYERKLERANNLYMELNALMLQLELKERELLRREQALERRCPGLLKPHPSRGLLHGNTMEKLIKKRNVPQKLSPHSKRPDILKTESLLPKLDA

For the compound `C[C@H](NC(=O)c1cc(-c2cc(C(=O)NC3CNC(=O)C3)c3nc(N)nn3c2)cs1)c1ccc(F)cc1` (mixture of isomers) [Compound 28], the IC50 on DLK was found to be 3.4 nM; against LZK, 110 nM.
Regarding `C[C@H](NC(=O)c1cc(-c2cc(C(=O)NC3CNC(=O)C3)c3nc(N)nn3c2)cs1)c1ccccc1` (mixture of isomers) [Compound 29], the results for the IC50 at DLK and against LZK were 2.8 nM and 60 nM, respectively.
The matching figures for `C[C@H](NC(=O)c1cc(-c2cc(C(=O)NC3CCNC3)c3nc(N)nn3c2)cs1)c1ccc(F)cc1` (mixture of isomers) [Compound 33]: 12 nM and 360 nM.
On to `C[C@H](NC(=O)c1cc(-c2cc(C(=O)NC3CCNC3)c3nc(N)nn3c2)cs1)c1ccccc1` (mixture of isomers) [Compound 34], for which the IC50 was found to be 55 nM at DLK and 880 nM at LZK.
For `CC(NC(=O)c1cc(-c2csc(C(=O)N[C@@H](C)c3ccccc3)c2)cn2nc(N)nc12)C(F)(F)F` (mixture of isomers) [Compound 43], the IC50 at DLK was determined as 22 nM; against LZK, 130 nM.
Taken in the same sequence, the figures for `CC(NC(=O)c1cc(-c2csc(C(=O)N[C@@H](C)c3ccc(F)cc3)c2)cn2nc(N)nc12)C(F)(F)F` (mixture of isomers) [Compound 51] were 28.5 nM and 240 nM.
On to `C[C@H](NC(=O)c1cc(-c2cc(C(=O)NC3CNC(=O)C3)c3nc(N)nn3c2)cs1)c1ccc(F)cc1` (single isomer, unassigned) [Compound 47], for which the values for the IC50 against DLK and at LZK were 130 nM and 3600 nM, respectively.
With `C[C@H](NC(=O)c1cc(-c2cc(C(=O)NC3CNC(=O)C3)c3nc(N)nn3c2)cs1)c1ccc(F)cc1` (single isomer, unassigned) [Compound 48], the IC50 against DLK came to 2.4 nM; against LZK, 77 nM.
The matching figures for `C[C@H](NC(=O)c1cc(-c2cc(C(=O)NC3CCNC3)c3nc(N)nn3c2)cs1)c1ccc(F)cc1` (single isomer, unassigned) [Compound 49]: 94 nM and 1100 nM.
Take `C[C@H](NC(=O)c1cc(-c2cc(C(=O)NC3CCNC3)c3nc(N)nn3c2)cs1)c1ccccc1` (single isomer, unassigned) [Compound 50]: the IC50 at DLK is 42 nM; against LZK, 730 nM.
Taken in the same sequence, the figures for `C[C@H](NC(=O)c1cc(-c2cc(C(=O)NC3CNC(=O)C3)c3nc(N)nn3c2)cs1)c1ccccc1` (single isomer, unassigned) [Compound 54] were 2.3 nM and 30 nM.
`COc1cccc(CNC(=O)c2cc(-c3cc(C(=O)NC(C)C)c4nc(N)nn4c3)cs2)c1` [Compound 3]: 34 nM corresponded to half-maximal inhibition at DLK (IC50).
On to `CC(C)NC(=O)c1cc(-c2csc(C(=O)NCc3ccc(F)cc3)c2)cn2nc(N)nc12` [Compound 4, 2-Amino-6-(5-{[(4-fluorophenyl)methyl]carbamoyl}thiophen-3-yl)-N-(propan-2-yl)[1,2,4]triazolo[1,5-a]pyridine-8-carboxamide], for which, at DLK, it took 35 nM to reach half-maximal inhibition (IC50).
The same measure, in the same setting: next, `CC(C)NC(=O)c1cc(-c2csc(C(=O)N[C@@H](C)c3ccc(F)cc3)c2)cn2nc(N)nc12` [Compound 19, 2-Amino-6-(5-{[(1S)-1-(4-fluorophenyl)ethyl]carbamoyl}thiophen-3-yl)-N-(propan-2-yl)[1,2,4]triazolo[1,5-a]pyridine-8-carboxamide]: 8.65 nM.
Same read-out and setting: next, `C[C@H](NC(=O)c1cc(-c2cc(C(=O)NC3COC3)c3nc(N)nn3c2)cs1)c1ccc(F)cc1` [Compound 73]: 160 nM; `C[C@H](NC(=O)c1cc(-c2cc(C(=O)NC(C)(C)CO)c3nc(N)nn3c2)cs1)c1ccc(F)cc1` [Compound 78]: 6.45 nM; `CC(C)NC(=O)c1cc(-c2csc(C(=O)N[C@H](C)c3ccc(F)cc3)c2)cn2nc(N)nc12` [Compound 96]: 14 nM.
With `Nc1nc2c(C(=O)N[C@H]3CCOC3)cc(-c3csc(C(=O)NCc4ccc(F)cc4)c3)cn2n1` [Compound 101], at DLK, the IC50 was 18 nM.
On DLK, `Nc1nc2ccc(-c3csc(C(=O)N4CC5(COC5)C4)c3)cn2n1` [Compound 163] registered an IC50 of 12000 nM. Against the preceding compound, the IC50 is about 670-fold higher.
On DLK, `COC(C)CN(C)C(=O)c1cc(-c2ccc3nc(N)nn3c2)cs1` (stereo not drawn) [Compound 164] displayed an IC50 of 28000 nM.
At DLK, `CN(Cc1ccc(F)cc1)C(=O)c1cc(-c2ccc3nc(N)nn3c2)cs1` [Compound 166] returned an IC50 of 5200 nM.
`CC1CCCN(C(=O)c2cc(-c3ccc4nc(N)nn4c3)cs2)C1` (stereo not drawn) [Compound 167] had an IC50 against DLK of 10000 nM.
Still for that read-out and setting: for `CC[C@H]1CC[C@H](NC(=O)c2cc(-c3ccc4nc(N)nn4c3)cs2)CC1` [Compound 178] the value was 3500 nM; for `CC(C)(C)OC(=O)N1CCCC(NC(=O)c2cc(-c3ccc4nc(N)nn4c3)cs2)C1` (stereo not drawn) [Compound 179], 3400 nM.
For the compound `NC(=O)c1cc(-c2ccc3nc(N)nn3c2)cs1` [Compound 183], the IC50 at DLK worked out at 4300 nM.
On the same count and under the same terms, next, `Nc1nc2ccc(-c3csc(C(=O)NC4CCOC4)c3)cn2n1` (stereo not drawn) [Compound 186]: 7600 nM; `Nc1nc2ccc(-c3csc(C(=O)NCC4CCCO4)c3)cn2n1` (stereo not drawn) [Compound 189]: 4700 nM; `Nc1nc2ccc(-c3csc(C(=O)NCC4CCCCO4)c3)cn2n1` (stereo not drawn) [Compound 208]: 3000 nM.
On the same count and under the same terms, next, `Nc1nc2ccc(-c3csc(C(=O)NCC4CCOC4)c3)cn2n1` (stereo not drawn) [Compound 210]: 2700 nM.
Take `Cc1nc(CNC(=O)c2cc(-c3ccc4nc(N)nn4c3)cs2)cs1` [Compound 217]: the midpoint of inhibition at DLK, the IC50, lay at 8600 nM. Compared with the last compound, the IC50 is about 3.2-fold higher.
The compound `CCn1cc(CNC(=O)c2cc(-c3ccc4nc(N)nn4c3)cs2)cn1` [Compound 218] registered an IC50 at DLK of 8700 nM.
On the same count and under the same terms, for `CN1CCC(CNC(=O)c2cc(-c3ccc4nc(N)nn4c3)cs2)CC1` [Compound 229] the value was 7600 nM.
On the same count and under the same terms, next, `COc1ccc2c(c1)CN(C(=O)c1cc(-c3ccc4nc(N)nn4c3)cs1)C2` [Compound 237]: 12000 nM; `Cn1cc(CNC(=O)c2cc(-c3ccc4nc(N)nn4c3)cs2)cn1` [Compound 244]: 4100 nM; `Cn1cncc1CNC(=O)c1cc(-c2ccc3nc(N)nn3c2)cs1` [Compound 252]: 3900 nM.
On the same count and under the same terms, for `CCCNc1nc2ccc(-c3csc(C(=O)NCc4cccc(OC)c4)c3)cn2n1` [Compound 253] the value was greater than 30000 nM.
For `COc1cc(OC)nc(CNC(=O)c2cc(-c3ccc4nc(N)nn4c3)cs2)n1` [Compound 258], the midpoint of inhibition at DLK, the IC50, lay at 7000 nM.
On the same count and under the same terms, for `Nc1nc2ccc(-c3csc(C(=O)Nc4ccccc4)c3)cn2n1` [Compound 259] the value was 2900 nM; for `COc1cccc(CNC(=O)c2cc(-c3ccc4nc(NCCN5CCOCC5)nn4c3)cs2)c1` [Compound 262], greater than 30000 nM; for `CCN(CC)CCNc1nc2ccc(-c3csc(C(=O)NCc4cccc(OC)c4)c3)cn2n1` [Compound 266], greater than 30000 nM.
The compound `COc1cccc(CNC(=O)c2cc(-c3cc(C(=O)NC(C)C)c4ncnn4c3)cs2)c1` [Compound 390] came in with an IC50 against DLK of 11000 nM. That is a double-digit micromolar value.
Still for that read-out and setting: next, `CC(C)NC(=O)c1cc(-c2csc(C(=O)N[C@@H](C)c3ccc(F)cc3)c2)cn2ncnc12` [Compound 391]: 2000 nM.
On DLK, `CC(C)c1nnc(-c2cc(-c3csc(C(=O)NCc4ccc(F)cc4)c3)cn3nc(N)nc23)s1` [Compound 393] came in with an IC50 of 260 nM.

For orientation: IC50 means the point on the concentration scale where inhibition reaches its midpoint. High values mean weaker potency, low ones greater potency.

Source of the values: patent publication US20230382904A1, “SUBSTITUTED 4-([1,2,4]TRIAZOLO[1,5-a]PYRIDIN-6-YL)THIOPHENE-2-CARBOXAMIDE DERIVATIVES AND USE THEREOF” (The Johns Hopkins University, priority 2020, published 2023).
